Test results published in PMC5597593, “Polyphenols journey through blood-brain barrier towards neuronal protection” (Scientific Reports, 2017).
Entries after “also recorded” stand apart in the source; their conditions may differ.

What was measured:
[1] = system: HBMEC line; experiment: Endothelial transport across confluent HBMEC two chamber BBB model, LC-Orbitrap MS; type: in vitro ADME, human; conditions: for Endothelial transport (lower/(upper+lower) compartment): 5 μM in upper chamber, 2 h of incubation
Experimental: We used the well-validated confluent HBMEC two chamber BBB model[32] to investigate endothelium transport with metabolite quantification by Orbitrap LC-MS techniques. (Poly)phenol metabolites were added in the upper chamber and their putative transport through the BBB endothelium assessed after 2 h of incubation (Fig. 1a).
Human brain microvascular endothelial cell (HBMEC) line was used as a simplified and validated in vitro model of the BBB[32], [44], [45], [62]. This cell line was derived from primary cultures of HBMEC transfected with SV40 large T antigen. HBMEC line was cultured in RPMI 1640 medium (Sigma-Aldrich) supplemented with 10% fetal bovine serum (FBS - Biochrom AG), 10% NuSerum IV (BD Biosciences), 1% non-essential amino acids (NEAA - Biochrom AG), 1% minimal essential medium (MEM) vitamins (Biochrom AG), 1 mM sodium pyruvate (Biochrom AG), 2mM L-glutamine (Biochrom AG), and 1% antibiotic-antimycotic solution (Sigma-Aldrich). For immunostaining and cytoprotection studies, cells were seeded at a density of 8 × 10^4 cell/mL in 24-well and 96-well plates, respectively, and treated after 48 h in culture. For integrity and transport studies, cells were seeded on polyester transwell inserts (0.4 μm, Corning Costar Corp., USA) at a density of 8 × 10^4 cell/insert and treated after 8 days in culture. Inserts and plates were coated with rat-tail collagen-I (BD Biosciences, Erembodegem, Belgium) before seeding. All experiments were performed after monolayer formation.
HBMEC were plated in semi-permeable membranes (inserts) placed in cell culture wells. This two-chamber system, where the upper and lower chambers mimic the blood and brain compartments, respectively, and the confluent HBMEC monolayer represents the BBB. Transport assays were conducted in HBSS (Hank’s Balanced Salt Solution) with calcium and magnesium (Gibco), supplemented with 0.1% FBS. Confluent monolayers of HBMEC were incubated with 5 μM of each compound for 2 h, time described for compounds to interact and/or being transported across cells, [69]. […]. Monolayer integrity was ensured in all experiments as described. In the end, cell medium from upper and lower compartments were collected and frozen at −80 °C until analysis. Transport analysis were performed after sample deproteinization by LC-Orbitrap MS as described below.
To 1 mL of upper or lower compartment cell medium it was added: 139 µL of 50% formic acid, ascorbic acid (final concentration of 1 mM) and taxifolin as internal standard (final concentration of 9 µM). To precipitate proteins, 2.5 mL of ACN was added dropwise and samples were vortexed before centrifugation at 3200 g for 15 min. The supernatant was removed and dried under centrifugal evaporation (CentriVap Vaccum Concentrator, Labconco). Samples were dissolved in 5% ACN in 0.1% formic acid and immediately analyzed by LC-Orbitrap MS.
Samples were separated on an HPLC Accela 600 HPLC system (Thermo Scientific, Bremen, Germany) using a C18 Synergi Hydro RP18 column (Phenomenex, Macclesfield, UK) 4 μm particle size and dimensions 2 mm ID × 150 mm. […] Analysis was done on an LTQ OrbitrapTM XL hybrid mass spectrometer (Thermo Scientific, Bremen, Germany).
MS analysis was performed using data-dependent Nth order double play analysis comprising full scan mass range 80–2000 amu, 30 000 resolution, data-type centroid and data dependent MS/MS (60 s of exclusion duration) on the top three most intense ions detected above threshold automatically in the independent scan event. ESI settings were as follows: source voltage, 3.4 kV; capillary temperature was 275 °C with a sheath gas at 40 psi and auxiliary gas at 5 psi. MS data handling software (Xcalibur QualBrowser software, Thermo Electron Corp.) was used to search for predicted metabolites by their appropriate m/z value. All peaks were checked for m/z value and fragmentation products. […]

[2] = system: HBMEC; experiment: HBMEC metabolization: search for novel cellular metabolites by LC-Orbitrap MS; type: in vitro ADME, human; conditions: after addition of Pyr-sulf in upper compartment; compared with acetylcysteine-pyrogallol
Experimental: Search for novel compounds resulting from HBMEC metabolization was performed in the same samples using Xcalibur QualBrowser software using an in-house database of putative bioavailable (poly)phenol metabolites[30]. Putative ID of predicted metabolites was determined by exact mass, according to their appropriate m/z value.

[3] = parameters: method as in PMID 25571923; conditions: human plasma samples; cited from earlier work
[4] = molecular target: T1, P-gp (Homo sapiens, UniProt P08183); experiment: P-gp functional assay, Rhodamine 123 accumulation in HBMEC; type: cell-based; conditions: 5 μM
T1 construct: endogenous in cells; host or cells: HBMEC line (human brain microvascular endothelial cells immortalised with SV40 large T antigen)
Experimental: Activity of each efflux transporter was determined by measuring cellular accumulation of respective substrate[65], [66], and results were expressed as fold-change compared to the respective control. […] The solution was quickly removed, HBMEC were washed three times with PBS and solubilized in 0.1 M NaOH. Substrate content was determined using a FLUOstar Omega fluorescent plate reader (BMG Labtechnologies, Ortenberg, Germany; for P-gp, excitation at 505 nm, emission at 534 nm; for MRP1, excitation at 495 nm, emission at 516 nm; for BCRP excitation at 503 nm, emission at 512 nm). […] Protein content was evaluated by the Bradford method[67] using Bio-Rad’s Protein Assay reagent (Bio-Rad).

[5] = system: HBMEC line; experiment: Cytoprotection in HBMEC submitted to oxidative stress (H2O2); type: cell-based, human; conditions: pre-incubation 5 µM 24 h, then 300 µM H2O2 24 h
Experimental: HBMEC were incubated in the presence of H2O2 (Sigma-Aldrich). Briefly, 24 h after seeding, cells growth medium was removed and cells were pre-incubated for 24 h with 5 µM of each compound. After pre-incubation, media was replaced by new media containing 300 µM H2O2, for 24 h[71], [72]. In the end, medium was removed and cell viability was assessed using the CellTiter-Blue® Cell Viability Assay (Promega), according to the manufacturer’s instructions.

[6] = system: primary mouse cerebellar granule cells; experiment: Neuroprotection in cerebellar granule cells exposed to glutamate excitotoxicity; type: cell-based; conditions: pre-incubation 5 µM 24 h, then 100 µM glutamate 24 h
Experimental: Primary cultures of cerebellar granule cells were prepared according to the already described method. Cells were isolated from cerebella of 7d-old BALB-C mice and 0.5 × 10^6 cell/mL were cultured in Neurobasal Medium (Gibco) supplemented with 2% B-27 without antioxidants (Gibco) and 2% KCl (20 mM, Sigma-Aldrich), containing 0.25% L-glutamine (200 mM, Sigma-Aldrich) and 0.48% penicillin-streptomycin (P/S, 5000 U mL^−1, Gibco). Experiments were performed on 24-well plates with coverslips coated with 50 µg/mL poly-D-lysine (Sigma-Aldrich). 20 µM of cytosine arabinoside (Sigma-Aldrich) was added 48 h after inoculation to prevent glia cell proliferation. All the experiments were performed between days 7–11 in culture.
Physiological concentrations (5 µM) of the two most abundant metabolites were added to the cells at 7 d in culture. Cells were then incubated for 24 h and morphology was evaluated. At day 8 in culture, 100 µM of glutamate (Sigma-Aldrich) was added to the respective wells. Cells were incubated for another 24 h, morphology was evaluated and viability determined by fluorescence microscopy through Propidium Iodide (PI) and Hoechst 33342 staining, as previously described.

[7] = system: 3D aggregates containing neurons and astrocytes (NT2); experiment: Neuroprotection in 3D co-cultures of neurons and astrocytes (t-BHP injury); type: cell-based, human; conditions: pre-incubation 5 µM 24 h, then 300 µM t-BHP, 48 h
Experimental: NTera-2/cl.D1 (NT2) cells, obtained from American Type Cell Culture Collection (ATCC), were differentiated in stirred suspension culture systems, as 3D aggregates, as previously described. A single cell suspension of undifferentiated NT2 cells was seeded in DMEM (Dulbeco Minimum Essential Media), 10% FBS, 1% P/S (all from Invitrogen), in a 125 mL spinner vessel equipped with ball impeller (Wheaton). After three days of aggregation, differentiation was induced by addition of 10 µM retinoic acid (Sigma-Aldrich), for three weeks, with a 50% medium exchange performed every 2–3 days. Following this period (from day 24 onwards), the medium was composed by DMEM, 5% FBS, 1% P/S. Stable 3D co-cultures of neurons and astrocytes were maintained up to day 50 of culture and applied in neuroprotection assays (from day 38 to day 50).
Cell viability was accessed before exposure to test compounds, before t-BHP lesion induction and 48 h after lesion induction by PrestoBlue® Cell Viability Reagent (Thermo Fisher Scientific), accordingly to manufacturer’s instructions. Idebenone (provided by Grupo Tecnimede) was used as positive control. Final cell viability was calculated as a percentage of cell viability before lesion induction.

[8] = system: NF-κB p65; experiment: NF-κB p65 phosphorylation (ser536) ratio in N9 microglia (western blot); type: cell-based, murine; conditions: N9 cells; pre-treatment before LPS; 15 to 60 min
Experimental: N9 microglial cells were plated into 6-well plates (5 × 10^5 cells mL^−1) and then pre-incubated with 5 µM of each (poly)phenol metabolite. After 6 h, medium was discarded and cells were washed once with phosphate buffer saline (PBS) prior to addition of fresh medium with 300 ng/mL lipopolysaccharide from Escherichia coli 055:B5 (LPS, Sigma–Aldrich). Pro-inflammatory mediators release to medium were quantified as described below.
NT2 aggregates and N9 protein samples western blot analysis was performed accordingly to[41]. Aggregates were lysed with TX-100 lysis buffer (50 mM Tris, 5 mM EDTA, 150 mM NaCl, 1% Triton X-100, pH 7.4) and N9 protein extraction was performed with RIPA buffer. Primary antibodies were incubated overnight at RT, followed by secondary antibodies (horseradish peroxidase-conjugated, ECL anti-mouse IgG, anti-rat IgG or anti-rabbit IgG; Pierce, Millipore and GE Healthcare), incubated for 2 h at room temperature. Anti-GAPDH antibody (Thermo Scientific) was used as loading control. Primary antibodies used for protein detection were: anti-βIII-Tubulin (Millipore), anti-GFAP (DAKO), and MitoProfile Total OXPHOS WB primary antibody cocktail (Abcam), anti-phospho-NF-κB p65 (ser536) antibody (Cell Signalling), anti-NF-κB p65 (C-20) (Santa Cruz Biotechnology), and anti-IκB-α (C-21) antibody (Santa Cruz Biotechnology). […]

[9] = system: β-III tubulin; experiment: Western blot of neuronal marker in 3D aggregates; type: cell-based, human; conditions: pre-incubation with 5µM Pyr-sulf or 200nM Idebenone, normalized to GAPDH
Experimental: NT2 aggregates and N9 protein samples western blot analysis was performed accordingly to[41]. Aggregates were lysed with TX-100 lysis buffer (50 mM Tris, 5 mM EDTA, 150 mM NaCl, 1% Triton X-100, pH 7.4) and N9 protein extraction was performed with RIPA buffer. Primary antibodies were incubated overnight at RT, followed by secondary antibodies (horseradish peroxidase-conjugated, ECL anti-mouse IgG, anti-rat IgG or anti-rabbit IgG; Pierce, Millipore and GE Healthcare), incubated for 2 h at room temperature. Anti-GAPDH antibody (Thermo Scientific) was used as loading control. Primary antibodies used for protein detection were: anti-βIII-Tubulin (Millipore), anti-GFAP (DAKO), and MitoProfile Total OXPHOS WB primary antibody cocktail (Abcam), anti-phospho-NF-κB p65 (ser536) antibody (Cell Signalling), anti-NF-κB p65 (C-20) (Santa Cruz Biotechnology), and anti-IκB-α (C-21) antibody (Santa Cruz Biotechnology). Membranes were developed using Amersham ECL Prime Western Blotting Detection Reagent (GE Healthcare) and visualized using a ChemiDocTM XRS + System (BioRad).

T1 sequence (P08183 whole entry): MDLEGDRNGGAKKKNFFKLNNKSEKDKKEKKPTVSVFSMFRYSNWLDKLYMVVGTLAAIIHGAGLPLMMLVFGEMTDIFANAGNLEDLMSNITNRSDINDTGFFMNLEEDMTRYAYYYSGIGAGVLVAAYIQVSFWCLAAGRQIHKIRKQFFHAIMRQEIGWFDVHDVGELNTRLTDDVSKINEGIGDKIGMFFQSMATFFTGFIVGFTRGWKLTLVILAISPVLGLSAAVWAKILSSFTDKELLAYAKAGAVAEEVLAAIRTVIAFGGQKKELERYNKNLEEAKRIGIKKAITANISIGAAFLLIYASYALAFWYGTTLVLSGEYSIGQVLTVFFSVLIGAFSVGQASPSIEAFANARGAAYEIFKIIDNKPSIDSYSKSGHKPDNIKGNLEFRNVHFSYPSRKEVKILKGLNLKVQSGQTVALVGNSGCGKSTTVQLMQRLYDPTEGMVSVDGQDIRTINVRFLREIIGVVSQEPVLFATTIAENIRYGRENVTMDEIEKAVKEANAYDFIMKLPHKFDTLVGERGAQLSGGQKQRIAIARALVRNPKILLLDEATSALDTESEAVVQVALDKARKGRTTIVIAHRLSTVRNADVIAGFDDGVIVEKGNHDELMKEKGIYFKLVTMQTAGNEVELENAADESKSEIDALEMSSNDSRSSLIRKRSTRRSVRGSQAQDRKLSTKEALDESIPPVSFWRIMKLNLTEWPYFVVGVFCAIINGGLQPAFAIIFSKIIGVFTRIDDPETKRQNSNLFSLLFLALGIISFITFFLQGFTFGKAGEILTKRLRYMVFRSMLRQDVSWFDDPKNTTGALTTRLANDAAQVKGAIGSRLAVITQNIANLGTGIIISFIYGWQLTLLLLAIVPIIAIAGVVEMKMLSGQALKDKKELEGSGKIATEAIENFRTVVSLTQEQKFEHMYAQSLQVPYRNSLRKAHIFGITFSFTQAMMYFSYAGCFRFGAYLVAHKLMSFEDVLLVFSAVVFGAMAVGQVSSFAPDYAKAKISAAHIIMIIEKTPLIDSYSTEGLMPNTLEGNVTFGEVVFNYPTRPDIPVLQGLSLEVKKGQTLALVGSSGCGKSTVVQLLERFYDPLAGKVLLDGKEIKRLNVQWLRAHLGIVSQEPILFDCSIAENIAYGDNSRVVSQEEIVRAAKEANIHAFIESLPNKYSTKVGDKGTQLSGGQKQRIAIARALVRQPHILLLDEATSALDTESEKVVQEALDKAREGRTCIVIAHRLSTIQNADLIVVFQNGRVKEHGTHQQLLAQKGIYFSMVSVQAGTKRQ

| Compound | Endothelial transport (lower/(upper+lower) compartment) [1] | Cmax [3] [nM] | further results |
| --- | --- | --- | --- |
| O=S(=O)(O)Oc1c(O)cccc1O [Pyr-2-sulf, Pyrogallol-2-O-sulfate] | detected only Pyr-2-sulf in the basolateral compartment |  |  |
| N[C@@H](CCC(=O)N[C@@H](CSc1ccc(O)c(O)c1O)C(=O)NCC(=O)O)C(=O)O [Glutathionyl-pyrogallol] |  |  | Relative abundance (peak areas) of novel metabolite [2]: detected in higher amounts |
| Cc1ccc(OS(=O)(=O)O)c(O)c1 [4-MeCat-sulf, 4-Methylcatechol O-sulfate] | more effectively transported than catechol-O-sulfate (Cat-sulf); also recorded: higher endothelial transport percentage | 640 ± 500 |  |
| O=S(=O)(O)Oc1ccccc1O [Cat-sulf, Catechol-O-sulfate] |  | 12200 ± 5900 | Endothelial transport after treatment with BCRP specific inhibitor Ko 143 ([1]; 5 μM, 1 μM Ko 143, p < 0.05 relatively to No inhibitor): significant increase; Endothelial transport along time ([1]; 5 μM, 2, 6 and 24 h): significant increase in transport percentage; P-gp activity (Rhodamine 123 accumulation) in the presence of metabolite [4]: no statistically- significant alterations; Cell viability of HBMEC after H2O2 injury [5]: improved cell viability; Cell viability of cerebellar granule cells under glutamate-induced excitotoxicity [6]: improved cell viability; Cell viability of 3D aggregates after t-BHP-induced injury [7]: significant neuroprotection; Kinetics of NF-κB phosphorylated-p65/total p65 ratio [8]: unchanged |
| COc1cc(C(=O)O)ccc1OS(=O)(=O)O [VA-sulf, Vanillic acid 4-O-sulfate] |  | 1340 ± 1300 |  |
| COC1=C(OC)C(=O)C(CCCCCCCCCCO)=C(C)C1=O [idebenone] |  |  | β-III tubulin protein levels after t-BHP lesion [9]: increased β-III tubulin protein levels |
| COc1c(O)cccc1OS(=O)(=O)O [2-MePyr-sulf, 2-O-methylpyrogallol-1-O-sulfate] | transported as effectively as Pyr-sulf | 1970 ± 1000 |  |
| COc1c(O)cc(C(=O)O)cc1OS(=O)(=O)O [4-MeGA-sulf, 4-O-methylgallic acid-3-O-sulfate] | increased BBB permeation compared with 4-methylgallic acid (4-MeGA) | 2030 ± 1100 |  |
| 1-O-methylpyrogallol-O-sulfate [1-MePyr-sulf] | less effectively transported | 2880 ± 1800 |  |
| COc1c(O)cc(C(=O)O)cc1O [4-MeGA, 4-O-methylgallic acid] |  | 300 ± 100 |  |
| O=S(=O)(O)Oc1cccc(O)c1O [Pyr-1-sulf, Pyrogallol-1-O-sulfate] |  |  | Endothelial transport after 24 h ([1]; Pyr-sulf mixture 5 μM, 24 h incubation): no transport |
